Values belong to the molecule of their own block, whether it stands above or below them.
Tests used:
[1] = Castor oil solubilization into water by cosolvent; settings: about 25° C.
Protocol: Mixtures of water and castor oil ChemistryStore.com; Cayce, S.C.) are prepared at 10/90, 25/75, 50/50, 75/25 and 90/10 volume ratios. […] To assess the ability of Et-LGK to solubilize castor oil into water, Et-LGK is added to each of these mixtures with vigorous stirring in a 20 mL scintillation vial at about 25° C. until a clear solution is obtained.

[2] = Isobutyl isobutyrate (IBIB) solubilization into water by cosolvent; settings: about 25° C.
Protocol: To assess the ability of Et-LGK to solubilize IBIB into water, Et-LGK is added to each of these mixtures with vigorous stirring in a 20 mL scintillation vial at about 25° C. until a clear solution is obtained.

[3] = 2,2,4-Trimethyl-1,3-pentanediol (2-methylpropanoate) (Texanol) solubilization into water by cosolvent; settings: about 25° C.
Protocol: To assess the ability of Et-LGK to solubilize Texanol into water, Et-LGK is added to each of these mixtures with vigorous stirring in a 20 mL scintillation vial at about 25° C. until a clear solution is obtained.
The concentrations of these comparative solvents (in volume %) needed in each case to form a clear solution is reported in Table 6 as Comparative Samples G, H and I, respectively.

[4] = Soya methyl esters solubilization into water by cosolvent; settings: about 25° C.
Protocol: Mixtures of water and soya methyl esters (Stepan Chemical, Northfield, Ill.) are prepared at 10/90, 25/75, 50/50, 75/25 and 90/10 volume ratios.

[5] = Miscibility of alkyl ketal esters with water; format: physicochemical; settings: for miscibility with water: miscibility assessed at 25° C. unless stated otherwise
Source text: The term “miscible” and its variations (“miscibility”, etc.) are used herein as a synonym for “soluble”, as that term is defined above. A material may be fully or partially miscible in another. As used herein, a material said to be “miscible” in another, without further qualification, is miscible with that other material in all proportions, i.e., mixtures that contain only the two components form clear homogenous solutions in all weight ratios from 99.9:0.1 to 0.1:99.9. A material is said to be “highly miscible” in another material if it is soluble in the other material to the extent of at least 20 parts in 80 parts of the other material, and preferably is soluble in that other material to the extent of at least 50 parts in 50 parts of the other material. A “highly miscible” material may be soluble in the other material to the extent of 99.9 parts to 0.1 part of that other material and all lower proportions. A material is said to be “sparingly miscible” in another (or has “low miscibility” in another material) if is immiscible (as defined below) therein or otherwise not soluble in that other material to the extent of 20 parts in 80 parts of the other material. A sparingly miscible material may be soluble in that other material to the extent of no more than 10 parts in 90 parts of that other material, and may be soluble in that other material to the extent of no more than 5 parts in 95 parts of the other material. A material is said to be “immiscible” in another if it is not soluble by itself in that material to the extent of at least 1 part per 99 parts of the other material. Unless stated otherwise, miscibility is assessed at 25° C.

[6] = Bleach and peroxide stability evaluations with Et-LGK (GC/FID); format: physicochemical; settings: after storing for 96 hours
Protocol: Examples 2-3 and a control (non-bleach) formulation are prepared by combining the ingredients indicated in Table 1 in a 20 ml borosilicate glass scintillation vial, followed by shaking vigorously to form a clear, colorless solution. All formulations are clear, colorless homogenous solutions after standing for three days at room temperature.
After storing for 96 hours, GC/FID analysis is performed to assess the stability of Examples 2 and 3 and Comparative Sample A. Three analyses are performed with each test sample. […] For Example 1, the Et-LGK concentration is about 9.4%, indicating a slight degradation of the material in the presence of the chlorine bleach.

[7] = Bleach stability evaluation with Et-LPK (GC-FID purity); format: physicochemical; settings: 8 ml Et-LPK stirred overnight with 2 ml 6% sodium hypochlorite in water; organic phase analysed
Protocol: The purity of an Et-LPK sample is measured by GC-FID (Model No. 7890A Gas Chromatograph w/ Flame Ionization Detector; Agilent Technologies, Santa Clara, Calif.). In a 20 ml vial (borosilicate scintillation; VWR International, West Chester, Pa.), 2 ml of a 6% sodium hypochlorite (bleach; Clorox Co., Oakland, Calif.) in water is mixed with 8 ml of Et-LPK to form a mixture. The mixture is shaken vigorously to produce a nearly clear solution. The mixture is further stirred overnight on a magnetic stir plate with a magnetic stir bar. Upon standing, the mixture separates into two phases—an upper organic phase and a bottom aqueous phase. A sample of the organic phase is analyzed by GC-FID to determine the purity of the Et-LPK after mixing.

[8] = Miscibility of alkyl ketal esters with organic compounds; format: physicochemical; settings: methanol, ethanol, tetrahydrofuran, acetone, ethyl acetate, methylene chloride, toluene, cyclohexane, acetic acid, poly(propylene glycol), mineral, castor, canola, corn, sunflower oil
Source text: The term “miscible” and its variations (“miscibility”, etc.) are used herein as a synonym for “soluble”, as that term is defined above. A material may be fully or partially miscible in another. As used herein, a material said to be “miscible” in another, without further qualification, is miscible with that other material in all proportions, i.e., mixtures that contain only the two components form clear homogenous solutions in all weight ratios from 99.9:0.1 to 0.1:99.9. A material is said to be “highly miscible” in another material if it is soluble in the other material to the extent of at least 20 parts in 80 parts of the other material, and preferably is soluble in that other material to the extent of at least 50 parts in 50 parts of the other material. A “highly miscible” material may be soluble in the other material to the extent of 99.9 parts to 0.1 part of that other material and all lower proportions. A material is said to be “sparingly miscible” in another (or has “low miscibility” in another material) if is immiscible (as defined below) therein or otherwise not soluble in that other material to the extent of 20 parts in 80 parts of the other material. […] Unless stated otherwise, miscibility is assessed at 25° C.

[9] = Et-LPK solubilization in Et-LGK/water mixtures (visual miscibility); format: physicochemical
Protocol: Several three-component mixtures of Et-LGK, water and Et-LPK are prepared by mixing the materials the above materials at room temperature in a 20 ml scintillation vial with shaking. The mixtures prepared are analyzed visually for miscibility. Clear mixture are considered to be “miscible”, and mixtures, which are cloudy or form two or more distinct phases are considered to be “immiscible” on this test.

Structure (SMILES): COC(C)COC(C)CO (centres unmarked) [DPGMME, dipropylene glycol monomethyl ether]
Required amount of cosolvent to obtain clear solution ([1]; 10/90 Water/castor oil ratio by volume): 55.9 vol.-%
Required amount of cosolvent to obtain clear solution ([1]; 25/75 Water/castor oil ratio by volume): 65.4 vol.-%
Required amount of cosolvent to obtain clear solution ([1]; 50/50 Water/castor oil ratio by volume): 73.5 vol.-%
Required amount of cosolvent to obtain clear solution ([1]; 75/25 Water/castor oil ratio by volume): 78.9 vol.-%
Required amount of cosolvent to obtain clear solution ([1]; 90/10 Water/castor oil ratio by volume): 80.6 vol.-%
Required amount of cosolvent to obtain clear solution ([2]; 10/90 Water/IBIB ratio by volume): 54.5 vol. %
Required amount of cosolvent to obtain clear solution ([2]; 25/75 Water/IBIB ratio by volume): 53.3 vol. %
Required amount of cosolvent to obtain clear solution ([2]; 50/50 Water/IBIB ratio by volume): 58.9 vol. %
Required amount of cosolvent to obtain clear solution ([2]; 75/25 Water/IBIB ratio by volume): 60.0 vol. %
Required amount of cosolvent to obtain clear solution ([2]; 90/10 Water/IBIB ratio by volume): 62.5 vol. %
Required amount of cosolvent to obtain clear solution ([3]; 10/90 Water/Texanol ratio by volume): 44.4 vol.-%
Required amount of cosolvent to obtain clear solution ([3]; 25/75 Water/Texanol ratio by volume): 50.9 vol.-%
Required amount of cosolvent to obtain clear solution ([3]; 50/50 Water/Texanol ratio by volume): 55.2 vol.-%
Required amount of cosolvent to obtain clear solution ([3]; 75/25 Water/Texanol ratio by volume): 54.1 vol.-%
Required amount of cosolvent to obtain clear solution ([3]; 90/10 Water/Texanol ratio by volume): 51.6 vol.-%
Required amount of cosolvent to obtain clear solution ([4]; 10/90 Water/soya methyl ester ratio by volume): 48.3 vol.-%
Required amount of cosolvent to obtain clear solution ([4]; 25/75 Water/soya methyl ester ratio by volume): 62.6 vol.-%
Required amount of cosolvent to obtain clear solution ([4]; 50/50 Water/soya methyl ester ratio by volume): 73.6 vol.-%
Required amount of cosolvent to obtain clear solution ([4]; 75/25 Water/soya methyl ester ratio by volume): 78.3 vol.-%
Required amount of cosolvent to obtain clear solution ([4]; 90/10 Water/soya methyl ester ratio by volume): 78.3 vol.-%

Structure (SMILES): CCOC(=O)CC1(C)OCC(CO)O1 (centres unmarked) [Et-AcAcGK]
miscibility with water [5]: miscible with water in all proportions

Structure (SMILES): CCOC(=O)CCC1(C)OCCO1 [Et-LEK]
miscible in water to the extent of [5]: about 5 parts per 95 parts of water

Structure (SMILES): CCOC(=O)CCC1(C)OCC(CO)O1 (centres unmarked) [Et-LGK]
miscibility with water [5]: miscible in water in all proportions
Et-LGK concentration (GC/FID) ([6]; control (non-bleach) formulation): about 10%
Et-LGK concentration (GC/FID) ([6]; formulation with 6% sodium hypochlorite solution (Table 1 'Example 1')): about 9.4%
Et-LGK concentration (GC/FID) ([6]; formulation with hydrogen peroxide (Table 1 'Example 2')): the same as the control

Structure (SMILES): CCOC(=O)CCC1(C)OCC(C)O1 (centres unmarked) [Et-LPK]
change in purity of Et-LPK (GC-FID) versus initial purity [7]: little to no change in the purity
dissolves or is miscible with organic compounds to the extent of [8]: at least 20 parts of the organic compound in 80 parts of ethyl-LPK
miscible in water to the extent of [5]: about 2.5 parts in 97.5 parts of water
Et-LPK concentration obtained in a miscible mixture with water and Et-LGK ([9]; Mixture 18): ~55 wt. %
miscibility of Et-LPK in water ([9]; at the 10.9% level, no Et-LGK): immiscible

Results, then the molecule that gave them:

miscibility with water [5]: miscible with water in all proportions
Structure (SMILES): COC(=O)CC1(C)OCC(CO)O1 (centres unmarked) [Me-AcAcGK]

miscibility with water [5]: miscible with water in all proportions
Structure (SMILES): COC(=O)CCC1(C)OCC(CO)O1 (centres unmarked) [Me-LGK]

miscible with water to the extent of [5]: about 1 part per 99 parts water
Structure (SMILES): CCCCOC(=O)CCC1(C)OCC(CO)O1 (centres unmarked) [n-butyl-LGK]

miscible with water to the extent of [5]: about 1 part per 99 parts water
Structure (SMILES): CCCOC(=O)CCC1(C)OCC(CO)O1 (centres unmarked) [n-propyl-LGK]
